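These data come from cells grown in 96-well plates and exposed to compound for 48 hours at five concentrations. Definition used: TGI = concentration required for complete inhibition of growth.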
Columns and labels:
Assay in all cases: inhibition of tumour cell growth, NCI panel, 48 h
786-0 renal = test system: 786-0 renal
A549 NSCLC = test system: A549 NSCLC
ACHN renal = test system: ACHN renal
CAKI-1 renal = test system: CAKI-1 renal
COLO 205 colon = test system: COLO 205 colon
DLD-1 colon = test system: DLD-1 colon
DMS 273 small cell lung = test system: DMS 273 small cell lung
HCC-2998 colon = test system: HCC-2998 colon
HCT-116 colon = test system: HCT-116 colon
HCT-15 colon = test system: HCT-15 colon
HL-60(TB) leukemia = test system: HL-60(TB) leukemia
HOP-62 NSCLC = test system: HOP-62 NSCLC
HOP-92 NSCLC = test system: HOP-92 NSCLC
HT29 colon = test system: HT29 colon
IGROV1 ovarian = test system: IGROV1 ovarian
K-562 leukemia = test system: K-562 leukemia
KM12 colon = test system: KM12 colon
KM20L2 colon = test system: KM20L2 colon
LOX IMVI melanoma = test system: LOX IMVI melanoma
LXFL 529 NSCLC = test system: LXFL 529 NSCLC
M14 melanoma = test system: M14 melanoma
MALME-3M melanoma = test system: MALME-3M melanoma
MOLT-4 leukemia = test system: MOLT-4 leukemia
NCI-H226 lung = test system: NCI-H226 lung
NCI-H23 lung = test system: NCI-H23 lung
NCI-H460 lung = test system: NCI-H460 lung
NCI-H522 lung = test system: NCI-H522 lung
OVCAR-3 ovarian = test system: OVCAR-3 ovarian
OVCAR-4 ovarian = test system: OVCAR-4 ovarian
OVCAR-5 ovarian = test system: OVCAR-5 ovarian
OVCAR-8 ovarian = test system: OVCAR-8 ovarian
RPMI-8226 leukemia = test system: RPMI-8226 leukemia
SF-268 CNS = test system: SF-268 CNS
SF-295 CNS = test system: SF-295 CNS
SF-539 CNS = test system: SF-539 CNS
SK-MEL-2 melanoma = test system: SK-MEL-2 melanoma
SK-MEL-28 melanoma = test system: SK-MEL-28 melanoma
SK-OV-3 ovarian = test system: SK-OV-3 ovarian
SN12C renal = test system: SN12C renal
SNB-19 CNS = test system: SNB-19 CNS
SNB-75 CNS = test system: SNB-75 CNS
SNB-78 CNS = test system: SNB-78 CNS
SR leukemia = test system: SR leukemia
SW-620 colon = test system: SW-620 colon
TK-10 renal = test system: TK-10 renal
U251 CNS = test system: U251 CNS
UACC-257 melanoma = test system: UACC-257 melanoma
UACC-62 melanoma = test system: UACC-62 melanoma
UO-31 renal = test system: UO-31 renal
XF 498 CNS = test system: XF 498 CNS
A498 renal = test system: A498 renal
BT-549 breast = test system: BT-549 breast
CCRF-CEM leukemia = test system: CCRF-CEM leukemia
DU-145 prostate = test system: DU-145 prostate
EKVX NSCLC = test system: EKVX NSCLC
HS 578T breast = test system: HS 578T breast
MCF7 breast = test system: MCF7 breast
MDA-MB-231 breast = test system: MDA-MB-231 breast
MDA-MB-435 = test system: MDA-MB-435
MDA-N = test system: MDA-N
NCI/ADR-RES ovarian = test system: NCI/ADR-RES ovarian
PC-3 prostate = test system: PC-3 prostate
RXF 393 renal = test system: RXF 393 renal
SK-MEL-5 melanoma = test system: SK-MEL-5 melanoma
T-47D breast = test system: T-47D breast
DMS 114 small cell lung = test system: DMS 114 small cell lung
HOP-18 NSCLC = test system: HOP-18 NSCLC
M19-MEL melanoma = test system: M19-MEL melanoma
RXF-631 renal = test system: RXF-631 renal

Measured: TGI

C=CCCC(C)N(C(=O)OC(C)(C)C)S(=O)(=O)c1ccc(C)cc1 (stereo not drawn)
not listed: A498 renal | BT-549 breast | CCRF-CEM leukemia | DU-145 prostate | EKVX NSCLC | HS 578T breast | MCF7 breast | MDA-MB-231 breast | MDA-MB-435 | MDA-N | NCI/ADR-RES ovarian | PC-3 prostate | RXF 393 renal | SK-MEL-5 melanoma | T-47D breast | DMS 114 small cell lung | HOP-18 NSCLC | M19-MEL melanoma | RXF-631 renal
> 100 µM: all other assays above

O=C(N/N=C\c1ccc([N+](=O)[O-])cc1)Nc1cccc2ccccc12
> 49.8 µM: UACC-62 melanoma
> 52.2 µM: HCT-116 colon
32 µM: HS 578T breast
33 µM: SF-539 CNS
29.4 µM: SNB-19 CNS
34.7 µM: OVCAR-8 ovarian
> 55.5 µM: SF-268 CNS
29.1 µM: 786-0 renal
> 51.9 µM: NCI-H460 lung
> 62.2 µM: LOX IMVI melanoma
63.6 µM: TK-10 renal
34.5 µM: RXF 393 renal
39 µM: SK-OV-3 ovarian
22.5 µM: HOP-62 NSCLC
40.9 µM: A498 renal
> 82.5 µM: MALME-3M melanoma
23.4 µM: BT-549 breast
> 31.6 µM: HL-60(TB) leukemia
23.6 µM: U251 CNS
33.1 µM: CAKI-1 renal
> 28.8 µM: SNB-75 CNS
> 80.9 µM: MCF7 breast
61.9 µM: NCI-H23 lung
> 47.6 µM: T-47D breast
22.6 µM: SF-295 CNS
23.9 µM: SK-MEL-2 melanoma
61 µM: NCI-H226 lung
> 79.8 µM: UO-31 renal
> 71.4 µM: PC-3 prostate
33.7 µM: MDA-MB-231 breast
16.7 µM: HOP-92 NSCLC
not listed: DLD-1 colon | DMS 273 small cell lung | KM20L2 colon | LXFL 529 NSCLC | SNB-78 CNS | XF 498 CNS | DMS 114 small cell lung | HOP-18 NSCLC | M19-MEL melanoma | RXF-631 renal
> 100 µM: all other assays above

CCOC(=O)/C(C#N)=C\C=C1/C=CNC2=NCCN21
not listed: HOP-92 NSCLC | OVCAR-5 ovarian | A498 renal | BT-549 breast | DU-145 prostate | HS 578T breast | MCF7 breast | MDA-MB-231 breast | MDA-MB-435 | MDA-N | NCI/ADR-RES ovarian | PC-3 prostate | T-47D breast | RXF-631 renal
> 100 µM: all other assays above

CCOC(=O)CNC1C(NC(C)=O)C(OC)OC2COC(c3ccccc3)OC21 (stereo not drawn)
not listed: DLD-1 colon | HOP-62 NSCLC | MOLT-4 leukemia | SR leukemia | XF 498 CNS | BT-549 breast | DU-145 prostate | HS 578T breast | MCF7 breast | MDA-MB-231 breast | MDA-MB-435 | MDA-N | NCI/ADR-RES ovarian | PC-3 prostate | T-47D breast
> 100 µM: all other assays above
